# Measurements: patent US20100105655A1, “NOVEL COMPOUNDS 515” (ASTRAZENECA AB, priority 2008, published 2010)
# Biological target: T1, IGFR kinase (Homo sapiens, UniProt P08069)
# T1 construct: purchased Millipore
# Assay: Enzyme assay (c), IGFR kinase, Caliper LabChip
# Assay type: biochemical
# Conditions: 30 nM IGFR kinase, 6 uM ATP, 3 uM peptide mix; read-out: IGFR IC50
# T1 sequence (P08069 31-1367): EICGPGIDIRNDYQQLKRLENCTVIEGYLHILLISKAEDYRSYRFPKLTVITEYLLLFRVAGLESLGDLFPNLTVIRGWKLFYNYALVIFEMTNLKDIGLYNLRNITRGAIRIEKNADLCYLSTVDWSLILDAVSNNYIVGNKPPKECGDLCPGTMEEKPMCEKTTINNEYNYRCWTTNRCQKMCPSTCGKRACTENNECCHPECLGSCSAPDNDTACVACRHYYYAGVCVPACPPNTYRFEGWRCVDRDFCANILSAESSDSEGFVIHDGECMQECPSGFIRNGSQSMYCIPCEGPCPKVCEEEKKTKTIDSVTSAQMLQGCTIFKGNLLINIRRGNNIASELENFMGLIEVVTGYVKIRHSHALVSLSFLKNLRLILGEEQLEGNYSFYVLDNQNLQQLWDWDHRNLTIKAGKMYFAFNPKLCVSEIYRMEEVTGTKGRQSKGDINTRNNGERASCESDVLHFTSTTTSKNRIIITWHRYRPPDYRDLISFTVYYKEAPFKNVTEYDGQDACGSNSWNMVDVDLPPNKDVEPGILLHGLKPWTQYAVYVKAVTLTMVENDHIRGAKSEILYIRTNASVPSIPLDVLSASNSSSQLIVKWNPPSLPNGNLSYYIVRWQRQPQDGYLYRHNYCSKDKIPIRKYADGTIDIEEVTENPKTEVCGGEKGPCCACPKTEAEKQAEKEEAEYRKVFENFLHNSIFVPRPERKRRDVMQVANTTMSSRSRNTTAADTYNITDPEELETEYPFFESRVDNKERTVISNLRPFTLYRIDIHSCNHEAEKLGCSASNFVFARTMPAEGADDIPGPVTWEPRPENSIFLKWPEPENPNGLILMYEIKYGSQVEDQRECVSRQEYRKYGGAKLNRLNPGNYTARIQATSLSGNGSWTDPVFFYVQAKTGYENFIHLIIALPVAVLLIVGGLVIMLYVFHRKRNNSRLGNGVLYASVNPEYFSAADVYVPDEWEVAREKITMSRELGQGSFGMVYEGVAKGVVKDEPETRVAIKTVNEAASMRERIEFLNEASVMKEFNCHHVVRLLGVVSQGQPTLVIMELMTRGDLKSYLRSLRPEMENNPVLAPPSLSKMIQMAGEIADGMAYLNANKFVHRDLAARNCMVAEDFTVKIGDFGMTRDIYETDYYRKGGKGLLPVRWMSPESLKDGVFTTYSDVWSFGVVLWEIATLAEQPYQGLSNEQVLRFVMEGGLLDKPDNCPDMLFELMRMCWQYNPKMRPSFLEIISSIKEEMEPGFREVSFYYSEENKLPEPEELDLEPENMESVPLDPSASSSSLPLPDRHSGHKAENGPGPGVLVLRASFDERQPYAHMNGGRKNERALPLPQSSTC
row,Compound,IC50 [nM]
1,"COc1cc(N2CCN(C(C)(C)CO)CC2)ccc1Nc1ncc(C)c(-c2cnc3cc(C)ccn23)n1 [Example 262, 2-[4-[3-methoxy-4-[[5-methyl-4-(7-methylimidazo[1,2-a]pyridin-3-yl)pyrimidin-2-yl]amino]phenyl]piperazin-1-yl]-2-methyl-propan-1-ol]",39
2,"COc1cc(N2CCN(CCO)CC2)ccc1Nc1ncc(Cl)c(-c2cnc3ccc(F)cn23)n1 [Example 263, 2-[4-[4-[[5-chloro-4-(6-fluoroimidazo[1,2-a]pyridin-3-yl)pyrimidin-2-yl]amino]-3-methoxy-phenyl]piperazin-1-yl]ethanol]",7
3,"COc1cc(N2CCN(CCO)CC2)ccc1Nc1ncc(C)c(-c2cnc3ccc(F)cn23)n1 [Example 264, 2-[4-[4-[[4-(6-fluoroimidazo[1,2-a]pyridin-3-yl)-5-methyl-pyrimidin-2-yl]amino]-3-methoxy-phenyl]piperazin-1-yl]ethanol]",12
4,"COc1cc(N2CCNCC2)ccc1Nc1ncc(Cl)c(-c2cnc3c(F)cc(F)cn23)n1 [Example 265, 5-chloro-4-(6,8-difluoroimidazo[1,2-a]pyridin-3-yl)-N-(2-methoxy-4-piperazin-1-yl-phenyl)pyrimidin-2-amine]",6
5,"COc1cc(N2CCNCC2)ccc1Nc1ncc(Cl)c(-c2cnc3ccc(C#N)cn23)n1 [Example 266, 3-[5-chloro-2-(2-methoxy-4-piperazin-1-yl-anilino)pyrimidin-4-yl]imidazo[1,2-a]pyridine-6-carbonitrile]",29
6,"COc1cc(N2CCN(C[C@@H](O)CO)CC2)ccc1Nc1ncc(C)c(-c2cnc3ccccn23)n1 [Example 267, (2R)-3-[4-[4-[(4-imidazo[1,2-a]pyridin-3-yl-5-methyl-pyrimidin-2-yl)amino]-3-methoxy-phenyl]piperazin-1-yl]propane-1,2-diol]",27
7,"COc1cc(N2CCN(C[C@H](O)CO)CC2)ccc1Nc1ncc(C)c(-c2cnc3ccccn23)n1 [Example 268, (2S)-3-[4-[4-[(4-imidazo[1,2-a]pyridin-3-yl-5-methyl-pyrimidin-2-yl)amino]-3-methoxy-phenyl]piperazin-1-yl]propane-1,2-diol]",23
8,"COc1cc(N2CCN(C(CO)CO)CC2)ccc1Nc1ncc(C)c(-c2cnc3ccccn23)n1 [Example 269, 2-[4-[4-[(4-imidazo[1,2-a]pyridin-3-yl-5-methyl-pyrimidin-2-yl)amino]-3-methoxy-phenyl]piperazin-1-yl]propane-1,3-diol]",16
9,"COc1cc(N2CCN(CCO)[C@H](C)C2)ccc1Nc1ncc(C)c(-c2cnc3ccccn23)n1 [Example 270, 2-[(2R)-4-[4-[(4-imidazo[1,2-a]pyridin-3-yl-5-methyl-pyrimidin-2-yl)amino]-3-methoxy-phenyl]-2-methyl-piperazin-1-yl]ethanol]",43
10,"COc1cc(N2CCN(CCO)[C@@H](C)C2)ccc1Nc1ncc(C)c(-c2cnc3ccccn23)n1 [Example 271, 2-[(2S)-4-[4-[(4-imidazo[1,2-a]pyridin-3-yl-5-methyl-pyrimidin-2-yl)amino]-3-methoxy-phenyl]-2-methyl-piperazin-1-yl]ethanol]",190
11,"COc1cc(N2CCN(CCO)[C@H](C)C2)ccc1Nc1ncc(F)c(-c2cnc3ccccn23)n1 [Example 272, 2-[(2R)-4-[4-[(5-fluoro-4-imidazo[1,2-a]pyridin-3-yl-pyrimidin-2-yl)amino]-3-methoxy-phenyl]-2-methyl-piperazin-1-yl]ethanol]",270
12,"COc1cc(N2CCN(CCO)[C@@H](C)C2)ccc1Nc1ncc(F)c(-c2cnc3ccccn23)n1 [Example 273, 2-[(2S)-4-[4-[(5-fluoro-4-imidazo[1,2-a]pyridin-3-yl-pyrimidin-2-yl)amino]-3-methoxy-phenyl]-2-methyl-piperazin-1-yl]ethanol]",210
13,"COc1cc(N2CCN(C(C)CO)CC2)ccc1Nc1ncc(C)c(-c2cnc3ccccn23)n1 (stereo not shown) [Example 274, 2-[4-[4-[(4-imidazo[1,2-a]pyridin-3-yl-5-methyl-pyrimidin-2-yl)amino]-3-methoxy-phenyl]piperazin-1-yl]propan-1-ol]",14
